Measured values as given in ChEMBL document CHEMBL5104095, “Proteolysis targeting chimera (PROTAC) in drug discovery paradigm: Recent progress and future challenges” (Eur J Med Chem, 2021).
Blank lines part the entries; values can stand above or below the molecule they belong to.

Key:
[1] = target: Protein cereblon/Peptidyl-prolyl cis-trans isomerase FKBP1A (Homo sapiens, UniProt P62942+Q96SW2); test: PROTAC activity at CRBN/FKBP12 in human Jurkat cells assessed as induction of FKBP12 degradation incubated for 12 hrs by Western blot analysis; type: cell-based
[2] = target: T1, Protein cereblon/Indoleamine 2,3-dioxygenase 1 (Homo sapiens, UniProt P14902+Q96SW2); test: PROTAC activity at CRBN/IDO1 in human HeLa cells assessed as induction of IDO1 degradation incubated for 24 hrs by immunoblot analysis relative to control; type: cell-based
Target sequence in this assay (P14902 whole entry, looked up): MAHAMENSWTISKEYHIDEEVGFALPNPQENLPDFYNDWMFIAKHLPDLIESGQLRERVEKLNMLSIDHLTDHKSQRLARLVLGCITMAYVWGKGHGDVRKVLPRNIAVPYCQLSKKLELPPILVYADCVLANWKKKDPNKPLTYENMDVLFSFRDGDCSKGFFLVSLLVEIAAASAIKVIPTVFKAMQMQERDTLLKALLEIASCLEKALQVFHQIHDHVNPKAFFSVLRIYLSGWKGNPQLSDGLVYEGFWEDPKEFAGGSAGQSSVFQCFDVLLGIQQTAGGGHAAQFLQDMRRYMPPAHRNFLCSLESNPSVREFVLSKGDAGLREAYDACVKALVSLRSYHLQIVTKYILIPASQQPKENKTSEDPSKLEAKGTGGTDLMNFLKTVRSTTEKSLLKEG
Target sequence in this assay (Q96SW2 whole entry, looked up): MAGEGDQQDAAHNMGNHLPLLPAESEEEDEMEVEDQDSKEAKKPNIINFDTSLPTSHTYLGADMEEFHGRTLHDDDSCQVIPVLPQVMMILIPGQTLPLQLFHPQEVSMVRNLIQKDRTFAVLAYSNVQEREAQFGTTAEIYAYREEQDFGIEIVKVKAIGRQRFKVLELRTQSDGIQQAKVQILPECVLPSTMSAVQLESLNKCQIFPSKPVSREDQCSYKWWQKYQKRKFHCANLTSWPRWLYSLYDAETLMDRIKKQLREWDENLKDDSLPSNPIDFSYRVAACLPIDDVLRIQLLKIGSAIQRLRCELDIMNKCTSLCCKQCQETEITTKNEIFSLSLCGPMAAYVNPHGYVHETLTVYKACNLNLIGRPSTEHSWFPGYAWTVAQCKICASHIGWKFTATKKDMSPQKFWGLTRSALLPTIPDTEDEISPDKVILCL

[3] = target: T1, Protein cereblon/Indoleamine 2,3-dioxygenase 1; test: PROTAC activity at CRBN/IDO1 in human HeLa cells assessed as induction of IDO1 degradation incubated for 24 hrs by immunoblot analysis; type: cell-based
Target sequence in this assay (P14902 whole entry): as the sequence (P14902 whole entry, looked up) above
Target sequence in this assay (Q96SW2 whole entry): as the sequence (Q96SW2 whole entry, looked up) above

[4] = target: Protein cereblon/Tyrosine-protein kinase BTK (Homo sapiens, UniProt Q06187+Q96SW2, C481S); test: PROTAC activity at CRBN/BTK C481S mutant transfected in human HBL1 cells assessed as induction of BTK C481S degradation incubated for 36 hrs by Western blot analysis; type: cell-based
[5] = target: T2, Protein cereblon/Tyrosine-protein kinase BTK (Homo sapiens, UniProt Q06187+Q96SW2); test: PROTAC activity at CRBN/BTK in human MINO cells assessed as reduction in BTK level incubated for 24 hrs by Western blot analysis; type: cell-based
Target sequence in this assay (Q06187 whole entry): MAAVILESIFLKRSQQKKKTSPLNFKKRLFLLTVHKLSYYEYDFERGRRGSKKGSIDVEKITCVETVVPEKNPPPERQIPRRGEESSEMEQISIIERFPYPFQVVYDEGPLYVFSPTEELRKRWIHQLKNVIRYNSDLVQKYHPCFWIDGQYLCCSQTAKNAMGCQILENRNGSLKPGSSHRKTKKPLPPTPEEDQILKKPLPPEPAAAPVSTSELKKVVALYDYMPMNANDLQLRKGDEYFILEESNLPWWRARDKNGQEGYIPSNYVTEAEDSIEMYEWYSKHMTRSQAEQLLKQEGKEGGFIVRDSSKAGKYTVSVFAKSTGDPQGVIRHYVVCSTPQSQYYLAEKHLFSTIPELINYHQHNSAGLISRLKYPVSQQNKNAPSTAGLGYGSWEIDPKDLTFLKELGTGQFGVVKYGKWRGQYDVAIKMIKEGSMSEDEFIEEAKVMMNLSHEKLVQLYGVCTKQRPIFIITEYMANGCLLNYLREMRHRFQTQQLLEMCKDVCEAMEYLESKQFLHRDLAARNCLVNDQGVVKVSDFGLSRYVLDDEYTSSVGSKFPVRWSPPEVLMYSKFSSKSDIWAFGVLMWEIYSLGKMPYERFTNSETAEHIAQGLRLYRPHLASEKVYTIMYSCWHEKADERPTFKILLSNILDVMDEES
Target sequence in this assay (Q96SW2 whole entry): as the sequence (Q96SW2 whole entry, looked up) above

[6] = target: T2, Protein cereblon/Tyrosine-protein kinase BTK; test: PROTAC activity at CRBN/BTK in human MINO cells assessed as reduction in BTK level incubated for 24 hrs by Western blot analysis relative to control; type: cell-based
Target sequence in this assay (Q06187 2-659 limits assumed): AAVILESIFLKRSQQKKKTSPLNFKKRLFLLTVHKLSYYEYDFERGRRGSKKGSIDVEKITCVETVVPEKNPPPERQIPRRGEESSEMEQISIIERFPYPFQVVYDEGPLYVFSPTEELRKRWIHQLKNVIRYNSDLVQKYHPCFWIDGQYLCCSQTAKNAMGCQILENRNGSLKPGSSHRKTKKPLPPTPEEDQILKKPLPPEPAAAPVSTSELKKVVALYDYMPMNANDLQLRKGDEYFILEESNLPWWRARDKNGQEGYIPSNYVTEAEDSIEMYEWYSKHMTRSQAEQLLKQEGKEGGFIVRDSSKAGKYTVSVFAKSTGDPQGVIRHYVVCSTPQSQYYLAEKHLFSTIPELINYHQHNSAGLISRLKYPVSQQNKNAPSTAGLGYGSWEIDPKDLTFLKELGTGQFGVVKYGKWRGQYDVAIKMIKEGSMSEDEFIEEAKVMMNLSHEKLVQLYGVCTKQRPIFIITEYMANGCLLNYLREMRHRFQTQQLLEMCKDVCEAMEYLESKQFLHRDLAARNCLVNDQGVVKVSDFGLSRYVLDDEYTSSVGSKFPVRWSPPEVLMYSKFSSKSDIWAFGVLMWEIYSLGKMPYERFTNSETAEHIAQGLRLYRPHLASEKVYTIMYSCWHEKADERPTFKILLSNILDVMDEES
Target sequence in this assay (Q96SW2 whole entry partner): as the sequence (Q96SW2 whole entry, looked up) above

[7] = target: T3, von Hippel-Lindau disease tumor suppressor/Tyrosine-protein kinase ABL1/Breakpoint cluster region protein (Homo sapiens, UniProt P00519+P11274+P40337); test: PROTAC activity at VHL/BCR-Abl (unknown origin) assessed as induction of BCR-Abl degradation by cell based assay
[8] = target: T3, von Hippel-Lindau disease tumor suppressor/Tyrosine-protein kinase ABL1/Breakpoint cluster region protein; test: PROTAC activity at VHL/BCR-Abl (unknown origin) assessed as induction of BCR-Abl degradation by cell based assay relative to control
[9] = target: von Hippel-Lindau disease tumor suppressor/Focal adhesion kinase 1 (Homo sapiens) (UniProt Q05397+P40337); test: PROTAC activity at VHL/FAK in human PC-3 cells assessed as induction of FAK degradation incubated for 24 hrs by immunoblot analysis relative to control; type: cell-based
[10] = target: von Hippel-Lindau disease tumor suppressor/Focal adhesion kinase 1 (Homo sapiens, UniProt P40337+Q05397); test: PROTAC activity at VHL/FAK in human PC-3 cells assessed as induction of FAK degradation incubated for 24 hrs by immunoblot analysis; type: cell-based
[11] = target: BRD4/E3 ubiquitin-protein ligase Mdm2 (Homo sapiens, UniProt O60885+Q00987); test: PROTAC activity at MDM2/BRD4 in human HCT-116 cells assessed as induction of BRD4 degradation incubated for 24 hrs by immunoblot analysis; type: cell-based
[12] = target: BRD4/E3 ubiquitin-protein ligase Mdm2 (Homo sapiens) (UniProt Q00987+O60885); test: PROTAC activity at MDM2/BRD4 in human HCT-116 cells assessed as induction of BRD4 degradation incubated for 24 hrs by immunoblot analysis relative to control; type: cell-based
[13] = target: T4, Protein cereblon/Retinal rod rhodopsin-sensitive cGMP 3',5'-cyclic phosphodiesterase subunit delta (Homo sapiens, UniProt O43924+Q96SW2); test: PROTAC activity at CRBN/PDEdelta in human PancTu-I assessed as induction of PDEdelta degradation incubated for 24 hrs by immunoblot analysis; type: cell-based
[14] = target: T4, Protein cereblon/Retinal rod rhodopsin-sensitive cGMP 3',5'-cyclic phosphodiesterase subunit delta; test: PROTAC activity at CRBN/PDEdelta in human PancTu-I assessed as induction of PDEdelta degradation incubated for 24 hrs by immunoblot analysis relative to control; type: cell-based
PC-3 = test: Antiproliferative activity against human PC-3 cells assessed as inhibition of cell proliferation incubated for 48 hrs by CCK8 assay; type: functional, cell-based; conditions: PC-3, 48 h

Protein cereblon/Peptidyl-prolyl cis-trans isomerase FKBP1A, sequence (P62942 whole entry): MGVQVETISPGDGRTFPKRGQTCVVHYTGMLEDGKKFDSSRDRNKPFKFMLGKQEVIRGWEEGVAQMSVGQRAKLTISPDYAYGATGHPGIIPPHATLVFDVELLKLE
Protein cereblon/Peptidyl-prolyl cis-trans isomerase FKBP1A, sequence (Q96SW2 whole entry): as the sequence (Q96SW2 whole entry, looked up) above
BRD4/E3 ubiquitin-protein ligase Mdm2, sequence (Q00987 whole entry, looked up, other chains not shown): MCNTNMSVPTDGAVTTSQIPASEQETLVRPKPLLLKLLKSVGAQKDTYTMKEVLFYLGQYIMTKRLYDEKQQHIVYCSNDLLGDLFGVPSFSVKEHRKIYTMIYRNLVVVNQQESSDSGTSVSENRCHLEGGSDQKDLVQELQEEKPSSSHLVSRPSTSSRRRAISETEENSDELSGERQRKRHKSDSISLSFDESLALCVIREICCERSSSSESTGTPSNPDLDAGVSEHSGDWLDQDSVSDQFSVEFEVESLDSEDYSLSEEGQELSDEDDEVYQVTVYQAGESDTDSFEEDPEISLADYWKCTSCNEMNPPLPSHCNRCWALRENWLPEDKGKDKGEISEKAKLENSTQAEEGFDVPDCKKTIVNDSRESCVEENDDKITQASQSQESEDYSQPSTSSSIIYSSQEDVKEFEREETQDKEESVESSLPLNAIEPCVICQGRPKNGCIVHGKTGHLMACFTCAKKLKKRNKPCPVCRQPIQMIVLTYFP

Compound: CO[C@H]1C[C@@H]2CC[C@@H](C)[C@@](O)(O2)C(=O)C(=O)N2CCCC[C@H]2C(=O)O[C@H]([C@@H](C)C[C@@H]2CC[C@@H](OCCOCc3cn(CCOCCOCCNc4cccc5c4C(=O)N(C4CCC(=O)NC4=O)C5=O)nn3)[C@H](OC)C2)CC(=O)[C@H](C)/C=C(\C)[C@@H](O)[C@H](OC)C(=O)[C@H](C)C[C@H](C)/C=C/C=C/C=C/1C (some centres not stated)
EC50 [1]: < 0.3 nM

Compound: O=C1CCC(N2C(=O)c3cccc(NCCOCCOCCOCCOCCOCCOCCOCCNCCNc4nonc4/C(=N/O)Nc4ccc(F)c(Br)c4)c3C2=O)C(=O)N1 (configuration not stated)
Emax [2]: 93% | EC50 [3]: 2840 nM

Compound: Nc1ncnc2c1c(-c1ccc(Oc3ccccc3)cc1)nn2[C@@H]1CCCN(C(=O)c2cn(CCOCCOCCOCCCc3cccc4c3CN(C3CCC(=O)NC3=O)C4=O)nn2)C1 (some centres not stated)
EC50 [4]: 29 nM

Compound: O=C1CCC(N2C(=O)c3cccc(NCCOCCOCCOCCOCCNC(=O)c4ccc(CN(CC5CCNCC5)S(=O)(=O)c5ccc(S(=O)(=O)N(Cc6ccc(Cl)cc6)C6CCCC6)cc5)cc4)c3C2=O)C(=O)N1 (configuration not stated)
EC50 [13]: 48 nM | Emax [14]: 85%

Compound: COc1cc2nc(N3CCN(C(=O)c4ccco4)CC3)nc(N)c2cc1OC [PRAZOSIN]
IC50 (PC-3): 11700 nM

More lines, now with the values ahead:

EC50 [5]: 10 nM | Emax [6]: 90%
Compound: CC(C)(/C=C(\C#N)C(=O)N1CCC[C@H](n2nc(-c3ccc(Oc4ccccc4)cc3)c3c(N)ncnc32)C1)CCCOCCOCCOCCOCCOc1cccc2c1C(=O)N(C1CCC(=O)NC1=O)C2=O (some centres not stated)

EC50 [7]: 340 nM | Emax [8]: > 95%
Compound: Cc1ncsc1-c1ccc(CNC(=O)[C@@H]2C[C@@H](O)CN2C(=O)[C@@H](NC(=O)COCCOc2ccc(-c3cc(Nc4ccc(OC(F)(F)F)cc4)ncn3)cc2)C(C)(C)C)cc1

Emax [9]: 99% | EC50 [10]: 3 nM
Compound: Cc1ncsc1-c1ccc(CNC(=O)[C@@H]2C[C@@H](O)CN2C(=O)[C@@H](NC(=O)CCOCCOc2ccc(Nc3ncc(C(F)(F)F)c(NCc4cccc(N(C)S(C)(=O)=O)c4)n3)cc2)C(C)(C)C)cc1

EC50 [11]: 32 nM | Emax [12]: 98%
Compound: COc1cc(C(=O)NCCOCCOCCOCCNC(=O)C[C@@H]2N=C(c3ccc(Cl)cc3)c3c(sc(C)c3C)-n3c(C)nnc32)ccc1NC(=O)[C@@H]1N[C@@H](CC(C)(C)C)[C@](C#N)(c2ccc(Cl)cc2F)[C@H]1c1cccc(Cl)c1F

EC50 [5]: 10 nM | Emax [6]: 90%
Compound: Nc1ncnc2c1c(-c1ccc(Oc3ccccc3)cc1)nn2[C@H]1CCCN(C(=O)/C=C/CCCCOCCOCCOCCOCCOc2cccc3c2C(=O)N(C2CCC(=O)NC2=O)C3=O)C1 (some centres not stated)
